This note sets out measurements from PMC8541628, “Development of Novel Quinoline-Based Sulfonamides as Selective Cancer-Associated Carbonic Anhydrase Isoform IX Inhibitors” (International Journal of Molecular Sciences, 2021).

For test [1], the system named is Bcl-2. The experiment in a line: Bcl-2 expression level (ELISA) in MCF-7 cells. Format: cell-based, human. The note with it: for Bcl-2 / Bcl-2, folds of control: 24 h incubation; for suppression of the expression level of Bcl-2 protein: compared to the untreated control. The protocol: The levels of two members of Bcl-2 family proteins, the anti-apoptotic Bcl-2 protein, and the counteracting pro-apoptotic Bax protein, as well as the level of active caspase-3 (a key executioner protease) in MDA-MB-231 and MCF-7 cells have been assessed after incubation with QBS 11c and 13b for 24 h.
All adopted procedures for the conducted in vitro biological assays were performed as described earlier; CA (stopped-flow), cytotoxicity (MTT [37, 38]), and assessment of apoptotic markers assays, as well as induction of hypoxia with cobalt chloride, and were mentioned in the Supporting Materials. […]
monolay er. Cell monolay ers were treated in quadrates with vehicle (DMSO, 0.1% v/v), test samples or Adriamycin as positive control for an exposure time of 72 h. At the end of exposure, MTT solution in PBS (5 mg/ml) was then added to all well including no cell blank and left to incubate for 90 min. The formation of formazan crystals were visually confirmed using phase contract microscopy. DMSO (100 µl/well) was added to dissolve the formazan crystals with shaking for 10 min after which the absorbance was read at 590 nm against no cell blanks on a FLuo Star Optima microplate reader (BMG technologies, Germany). Cell proliferation was calculated comparing the OD values of the DMSO control wells and those of the samples represented as % proliferation to the control. Dose-response experiment was performed on samples producing > or =50% loss of cell proliferation using five serial 2-fold dilutions (50, 25, 12.5, 6.25 and 3.125 µM) of the sample. IC50 values (concentration of sample causing 50% loss of cell proliferation of the vehicle control) were calculated using non-linear regression curve fitting of the dose response plots on GraphPad Prism V.6.0 software.
3. Assessment of Apo ptotic Markers Levels
The levels of the pro-apoptotic markers (Bax and active caspase-3) as well as the anti-apoptotic marker Bcl-2 were determined using ELISA kits; Human Bax ELISA Kit (EIA-4487) DRG® Instruments, Bcl-2 ELISA Kit (99–0042), Zymed® Laboratories, Invitrogen Immunodetection, and Human Caspase-3 (active) ELISA Kit (KHO1091) Invitrogen®, per the manufacturer’s instructions. Breast cancer MDA-MB-231 and MCF-7 cells were cultured as a monolayer in T-25 flasks and were seeded to attain 30% confluency prior to treatment. Cells were then treated separately with MBFS 11b at its IC50 concentration for 24 h. At the end of treatment, cells were collected via trypsinization and centrifuged at 10,000 rpm. The pellet was then rinsed with PBS and lysed in RIPA lysis buffer at 4 °C for 45 min, then centrifuged at 14,000 rpm for 20 min to remove the cellular debris. Lysates were then collected and stored at −80 °C for later protein determination using Pierce BCA Protein Assay Kit according to manufacturer’s recommendations.
The cell lysate was diluted 10 times, and 100 μL ([…]) was added to the wells of […] separate microtiter plates for the three ELISA kits th at were pre-coated with primary antibodies specific to Bax, Bcl-2, and caspase-3 proteins, respectively. A secondary biotin-linked antibody specific to the protein captured by the primary antibody was further added to bind the […]
captured protein, forming a “sandwich” of specific antibodies around the desired protein in the cell lysate. The streptavidin-HRP complex was then used to bind the biotin-linked secondary antibody through its streptavidin portion. The HRP domain reacted with the added TMB substrate to form a colored product that measured at 450 nm by a plate reader ChroMate-4300 after the reaction was terminated via the addition of stop solution. […]
The ligand 3D structures were prepared by Maestro and their ionization states was checked with Epik at pH 7.4±0.5 then they were subjected to energy minimization using OPLS3 force field in Macromodel with a maximum number of 2500 conjugate gradient iteration and a convergence of 0.05 kcal mol−1 A−1. Glide with default […]
In general terms: An ELISA detects its analyte on a solid surface through an enzyme-linked reagent.

The test system of test [2] is MCF-7. The experiment in a line: 72 h MTT anti-proliferative assay under hypoxic conditions, MCF-7. Format: cell-based. The note with it: Homo sapiens, MCF7, mean ± S.D. of three experiments. The protocol:
Therefore, QBS 11c and 13b were further screened for their potential in vitro anti-proliferative action against two breast cancer cell lines (MDA-MB-231 and MCF-7) under hypoxic conditions, exploiting a 72 h MTT assay protocol and using Doxorubicin as a positive control drug.
All adopted procedures for the conducted in vitro biological assays were performed as described earlier; CA (stopped-flow), cytotoxicity (MTT [37, 38]), and assessment of apoptotic markers assays, as well as induction of hypoxia with cobalt chloride, and were mentioned in the Supporting Materials.
1. Carbonic anhydrase inhibition assay
16) herein reported have were assayed utilizing an instrument of Applied Photophysics stopped-flow. The enzymes are recombinant proteins prepared in our lab. Phenol red (at a concentration of 0.2 mM) has been used as indicator, working at the absorbance maximum of 557 nm, with 20 mM Hepes (pH 7.5) as buffer, and 20 mM Na2SO4 (for maintaining constant the ionic strength), […]
parameters and inhibition constants. For each inhibitor at least six traces of the initial 5-10% of the reaction have been used for determining the initial velocity . Th e un cat aly zed rates were determined in the same manner and subtracted from the total observed rates. Stock solutions of inhibitor (0.1 mM) were prepared in distilled-deionized water and dilutions up to 0.01 nM were done thereafter with the assay buffer. Inhibitor and enzyme solutions were preincubated together for 15 min at room temperature prior to assay, in order to allow fo r the formation of the E-I complex. […]
Cells were sub-cultured with try psine /EDTA solution, counted with haemocy tometer and plated onto 96-well plates (5000 cells/well) and left overnight to form a semi-confluent […]
monolay er. […] DMSO (100 µl/well) was added to dissolve the formazan crystals with shaking for 10 min after which the absorbance was read at 590 nm against no cell blanks on a FLuo Star Optima microplate reader (BMG technologies, Germany). Cell proliferation was calculated comparing the OD values of the DMSO control wells and those of the samples
(Formazan colour is commonly taken as a measure of viable cells.)

Consider `NS(=O)(=O)c1cccc(Nc2ccnc3ccc(Cl)cc23)c1` [11c, 3-((6-chloroquinolin-4-yl)amino)benzenesulfonamide], for which, in test [1], the Bcl-2 is listed as 7.29 ± 0.15 Pg/mg of Total Protein; the “Bcl-2, folds of control” value is listed as 0.79 folds of control; the “suppression of the expression level of Bcl-2 protein” value was 21%. Further, in test [2], the IC50 (in general, the point on the concentration scale where inhibition reaches its midpoint) was 0.43 ± 0.02 µM.

On to `COc1ccc2nccc(Nc3ccc(S(N)(=O)=O)cc3)c2c1` [13b, 4-((6-methoxyquinolin-4-yl)amino)benzenesulfonamide], for which, in test [1], the Bcl-2 is given as 5.72 ± 0.13 Pg/mg of Total Protein; the “Bcl-2, folds of control” value is listed as 0.62 folds of control; the “suppression of the expression level of Bcl-2 protein” value was 38%. For the same molecule, the IC50 in test [2] was 3.69 ± 0.17 µM.
